In assay [1] the target is T1, TRPL channels (Drosophila melanogaster, UniProt P48994).
T1 sequence (P48994 1-1124): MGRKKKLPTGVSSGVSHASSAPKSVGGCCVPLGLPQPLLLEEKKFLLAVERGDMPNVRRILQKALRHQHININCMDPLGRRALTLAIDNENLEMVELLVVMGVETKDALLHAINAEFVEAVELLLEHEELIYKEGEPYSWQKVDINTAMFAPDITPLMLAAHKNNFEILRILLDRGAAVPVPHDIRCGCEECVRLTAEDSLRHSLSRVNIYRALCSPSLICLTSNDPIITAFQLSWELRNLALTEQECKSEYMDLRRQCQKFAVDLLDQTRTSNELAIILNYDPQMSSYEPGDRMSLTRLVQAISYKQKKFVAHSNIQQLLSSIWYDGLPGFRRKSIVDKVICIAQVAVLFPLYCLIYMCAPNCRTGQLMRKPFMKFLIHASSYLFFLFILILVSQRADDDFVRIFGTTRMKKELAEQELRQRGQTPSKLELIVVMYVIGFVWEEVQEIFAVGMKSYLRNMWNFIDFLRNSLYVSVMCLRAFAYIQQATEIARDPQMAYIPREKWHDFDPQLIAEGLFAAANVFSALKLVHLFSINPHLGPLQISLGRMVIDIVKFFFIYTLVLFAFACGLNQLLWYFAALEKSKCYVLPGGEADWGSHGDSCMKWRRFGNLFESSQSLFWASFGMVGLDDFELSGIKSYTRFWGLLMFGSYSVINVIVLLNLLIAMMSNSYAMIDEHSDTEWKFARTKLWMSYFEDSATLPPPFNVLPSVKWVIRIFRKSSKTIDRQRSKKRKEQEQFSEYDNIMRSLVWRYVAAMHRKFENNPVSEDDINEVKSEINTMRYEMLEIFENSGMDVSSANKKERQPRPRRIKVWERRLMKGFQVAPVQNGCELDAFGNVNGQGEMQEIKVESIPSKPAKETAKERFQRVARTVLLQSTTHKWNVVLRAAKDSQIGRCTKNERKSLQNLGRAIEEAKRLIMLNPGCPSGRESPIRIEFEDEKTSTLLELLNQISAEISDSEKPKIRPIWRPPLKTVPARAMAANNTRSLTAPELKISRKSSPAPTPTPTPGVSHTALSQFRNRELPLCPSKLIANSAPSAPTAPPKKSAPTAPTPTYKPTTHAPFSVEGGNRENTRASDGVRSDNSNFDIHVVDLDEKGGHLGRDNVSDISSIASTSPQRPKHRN
Kind of assay: Whole-cell patch clamp of TRPL channels expressed in S2 cells. For orientation: In patch-clamp work, channel activity is measured electrically.
Experimental: Schneider 2 cells were grown in 25 cm^2 flasks at 25° C. in Schneider medium (Beit HaEmek biological industries, Israel) supplemented with 10% fetal bovine serum (FBS) and 1% pen-strep reagent.
24 hours prior to the experiment, 500 μM CuSO4 was added to the medium of the S2 cells to induce expression of the channels. […] Currents were recorded at room temperature using borosilicate patch pipettes of 5-8 MΩ and an Axopatch 1D (Molecular Devices, Inc.) voltage-clamp amplifier. […] Currents were filtered using the 8-pole low pass Bessel filter of the patch-clamp amplifier at 5 kHz and sampled at 20 kHz. To measure I-V curves with minimal distortions, only cells with low (<10 MΩ) series resistance were used, and series resistance was compensated to ˜80%.
For S2 cells, the extracellular solution contained in mM: 150 NaCl, 5 KCl, 4 MgCl2, 10 TES, 25 proline, 5 alanine and 0.5 EGTA. The intracellular solution contained in mM: 130 K-gluconate, 10 TES, 2 MgCl2, 4 Mg-ATP and 0.4 Na-GTP. […] All solutions were titrated to pH 7.2. Cells were perfused via a BPS-8 valve control system (Scientific Instruments) at a rate of ˜30 chamber volumes per minute. Chemicals were applied via the perfusion system.

The target in assay [2] is T2, TRP (Drosophila melanogaster, UniProt P19334).
T2 sequence (P19334 1-1275): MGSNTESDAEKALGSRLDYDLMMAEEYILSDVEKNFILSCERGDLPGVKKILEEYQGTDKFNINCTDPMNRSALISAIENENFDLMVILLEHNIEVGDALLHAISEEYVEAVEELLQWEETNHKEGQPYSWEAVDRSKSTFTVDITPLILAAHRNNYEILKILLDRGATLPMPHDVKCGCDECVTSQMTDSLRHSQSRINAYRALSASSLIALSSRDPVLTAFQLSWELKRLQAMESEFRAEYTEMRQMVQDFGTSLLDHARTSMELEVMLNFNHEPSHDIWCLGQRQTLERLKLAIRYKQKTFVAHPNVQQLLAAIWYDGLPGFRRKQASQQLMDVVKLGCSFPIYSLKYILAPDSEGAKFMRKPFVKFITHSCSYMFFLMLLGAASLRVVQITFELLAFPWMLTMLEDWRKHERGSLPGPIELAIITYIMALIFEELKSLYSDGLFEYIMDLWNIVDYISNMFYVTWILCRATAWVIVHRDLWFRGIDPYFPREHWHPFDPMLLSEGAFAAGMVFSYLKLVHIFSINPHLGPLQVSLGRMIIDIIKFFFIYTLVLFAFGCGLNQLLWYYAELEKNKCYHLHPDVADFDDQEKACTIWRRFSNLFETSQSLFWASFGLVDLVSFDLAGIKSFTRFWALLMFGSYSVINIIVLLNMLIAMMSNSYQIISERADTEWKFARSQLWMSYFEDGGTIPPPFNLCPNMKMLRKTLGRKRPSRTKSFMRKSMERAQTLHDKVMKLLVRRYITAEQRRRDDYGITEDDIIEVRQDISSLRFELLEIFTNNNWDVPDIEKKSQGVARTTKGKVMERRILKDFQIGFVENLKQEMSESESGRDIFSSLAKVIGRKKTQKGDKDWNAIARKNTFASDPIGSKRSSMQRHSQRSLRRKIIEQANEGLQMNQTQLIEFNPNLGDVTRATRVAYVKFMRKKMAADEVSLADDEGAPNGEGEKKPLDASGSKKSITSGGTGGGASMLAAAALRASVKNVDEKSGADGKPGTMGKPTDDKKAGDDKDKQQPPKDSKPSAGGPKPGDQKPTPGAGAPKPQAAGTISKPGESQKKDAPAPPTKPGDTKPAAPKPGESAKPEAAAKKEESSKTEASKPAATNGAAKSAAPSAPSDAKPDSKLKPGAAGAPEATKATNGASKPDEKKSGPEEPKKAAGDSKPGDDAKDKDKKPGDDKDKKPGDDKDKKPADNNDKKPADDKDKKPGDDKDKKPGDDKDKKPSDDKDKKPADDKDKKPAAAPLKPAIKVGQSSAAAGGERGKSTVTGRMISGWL
Kind of assay: Light-induced current (LIC) in photoreceptor cells of wild-type flies (native TRP).
Experimental: Drosophila white-eyed flies of the following strains were used: wt and trp^P343. Flies were raised at 24° C. in a 12 h light/dark cycle.
A tungsten trans-illumination light (12 V, 100 W halogen lamp, in conjunction with a Schott OG 590 orange edge filter and a KG3 heat filter) provided illumination for stimulation of the photoreceptors in all experiments. Stimulating light was applied via a condenser lens (Carl Zeiss Microlmaging, Inc.) and was attenuated by neutral density filters. The maximal luminous intensity of the unattenuated orange light at the level of the ommatidia was 3.2 mW/cm^2.
Dissociated Drosophila ommatidia were prepared from newly emerged flies (<1 h after eclosion) that were kept in the dark 12-18 h before the experiment. Whole-cell, patch-clamp recordings were performed as described in Peretz et al, 1994. Currents were recorded at 21° C. using borosilicate patch pipettes of 8-10 MO and an Axopatch 200B™ (Molecular Devices, Inc.) voltage-clamp amplifier. Voltage-clamp pulses were generated and data captured using a Digidata 1200™ interfaced to a computer running pClamp 8.0 software (Axon Instruments, Inc.). Currents were filtered using the 8-pole low pass Bessel filter of the patch-clamp amplifier at 5 kHz and sampled at 10 kHz. Series resistance was compensated to ˜80%. […]

The target of assay [3] is T3, native TRPL channels (Drosophila melanogaster, UniProt P48994).
T3 construct: from tissue; host or cells: dissociated ommatidia of newly emerged white-eyed trpP343 flies
T3 sequence (P48994 1-1124): T1 sequence (P48994 1-1124)
Kind of assay: Light-induced current (LIC) in isolated ommatidia of trp^P343 mutant (native TRPL). Format: cell-based. To be noted: trp^P343 mutant photoreceptor cells, 500 μM. The source says: Series resistance was compensated to ˜80%.
All solutions were titrated to pH 7.15. […] All solutions were titrated to pH 7.2. […] Chemicals were applied via the perfusion system.

In assay [4] the target is T4, TRPM7 (Mus musculus, UniProt Q923J1). Kind of assay: cell-based. The settings on record: read-out: Inhibition of total presynaptic strength (S).
Assay [5] addresses T4, TRPM7. Kind of assay: Whole-cell patch clamp of TRPM7 expressed in HEK cells. On the set-up: expressed in transfected cells; host or cells: HEK / HEK293 cells, transient, TransIT reagent (Mirus). Format: cell-based, mammalian.
Experimental: Human embryonic kidney (HEK) cells were grown in 25 cm^2 flasks at 37° C. in Dulbecco's Modified Eagle's Medium (DMEM) (Beit Haemek biological industries, Israel) supplemented with 10% FBS, 1% pen-strep and 1% L-Glutamine. TRPM7 (GenBank accession number NM—021450; SEQ ID No: 19; provided by David Clapham) and pIRES-eGFP were transiently expressed using TransIT™ reagent (Mirus).
Cells were seeded on polylysine-coated plates at a confluence of 25%, 24-72 hours prior to the experiment. […] Whole-cell, patch-clamp recordings were performed as described (Parnas et al, 2007). Currents were recorded at room temperature using borosilicate patch pipettes of 5-8 MΩ and an Axopatch 1D (Molecular Devices, Inc.) voltage-clamp amplifier. Voltage-clamp pulses were generated and data captured using a Digidata 1322A interfaced to a computer running the pClamp 9.2 software (Axon Instruments, Inc.). Currents were filtered using the 8-pole low pass Bessel filter of the patch-clamp amplifier at 5 kHz and sampled at 20 kHz. To measure I-V curves with minimal distortions, only cells with low (<10 MΩ) series resistance were used, and series resistance was compensated to ˜80%.
For HEK cells, the extracellular solution contained in mM: 140 NaCl, 2.8 KCl, 2 CaCl2, 1 MgCl2, HEPES and 10 glucose. The intracellular solution contained in mM: 140 Cs-Aspartate, 8 NaCl, 10 EGTA and 10 HEPES. All solutions were titrated to pH 7.2. Cells were perfused via a BPS-8 valve control system (Scientific Instruments) at a rate of ˜30 chamber volumes per minute. Chemicals were applied via the perfusion system.

We go through one compound from patent publication US20110281949A1, “METHODS AND COMPOSITIONS FOR TREATING NEURONAL DAMAGE AND MODULATING TRANSIENT RECEPTOR POTENTIAL CHANNELS” (priority 2008, published 2011).

Molecules are shown by their SMILES. Entries after “also recorded” stand apart in the source; their conditions may differ.

T4 sequence (Q923J1 whole entry): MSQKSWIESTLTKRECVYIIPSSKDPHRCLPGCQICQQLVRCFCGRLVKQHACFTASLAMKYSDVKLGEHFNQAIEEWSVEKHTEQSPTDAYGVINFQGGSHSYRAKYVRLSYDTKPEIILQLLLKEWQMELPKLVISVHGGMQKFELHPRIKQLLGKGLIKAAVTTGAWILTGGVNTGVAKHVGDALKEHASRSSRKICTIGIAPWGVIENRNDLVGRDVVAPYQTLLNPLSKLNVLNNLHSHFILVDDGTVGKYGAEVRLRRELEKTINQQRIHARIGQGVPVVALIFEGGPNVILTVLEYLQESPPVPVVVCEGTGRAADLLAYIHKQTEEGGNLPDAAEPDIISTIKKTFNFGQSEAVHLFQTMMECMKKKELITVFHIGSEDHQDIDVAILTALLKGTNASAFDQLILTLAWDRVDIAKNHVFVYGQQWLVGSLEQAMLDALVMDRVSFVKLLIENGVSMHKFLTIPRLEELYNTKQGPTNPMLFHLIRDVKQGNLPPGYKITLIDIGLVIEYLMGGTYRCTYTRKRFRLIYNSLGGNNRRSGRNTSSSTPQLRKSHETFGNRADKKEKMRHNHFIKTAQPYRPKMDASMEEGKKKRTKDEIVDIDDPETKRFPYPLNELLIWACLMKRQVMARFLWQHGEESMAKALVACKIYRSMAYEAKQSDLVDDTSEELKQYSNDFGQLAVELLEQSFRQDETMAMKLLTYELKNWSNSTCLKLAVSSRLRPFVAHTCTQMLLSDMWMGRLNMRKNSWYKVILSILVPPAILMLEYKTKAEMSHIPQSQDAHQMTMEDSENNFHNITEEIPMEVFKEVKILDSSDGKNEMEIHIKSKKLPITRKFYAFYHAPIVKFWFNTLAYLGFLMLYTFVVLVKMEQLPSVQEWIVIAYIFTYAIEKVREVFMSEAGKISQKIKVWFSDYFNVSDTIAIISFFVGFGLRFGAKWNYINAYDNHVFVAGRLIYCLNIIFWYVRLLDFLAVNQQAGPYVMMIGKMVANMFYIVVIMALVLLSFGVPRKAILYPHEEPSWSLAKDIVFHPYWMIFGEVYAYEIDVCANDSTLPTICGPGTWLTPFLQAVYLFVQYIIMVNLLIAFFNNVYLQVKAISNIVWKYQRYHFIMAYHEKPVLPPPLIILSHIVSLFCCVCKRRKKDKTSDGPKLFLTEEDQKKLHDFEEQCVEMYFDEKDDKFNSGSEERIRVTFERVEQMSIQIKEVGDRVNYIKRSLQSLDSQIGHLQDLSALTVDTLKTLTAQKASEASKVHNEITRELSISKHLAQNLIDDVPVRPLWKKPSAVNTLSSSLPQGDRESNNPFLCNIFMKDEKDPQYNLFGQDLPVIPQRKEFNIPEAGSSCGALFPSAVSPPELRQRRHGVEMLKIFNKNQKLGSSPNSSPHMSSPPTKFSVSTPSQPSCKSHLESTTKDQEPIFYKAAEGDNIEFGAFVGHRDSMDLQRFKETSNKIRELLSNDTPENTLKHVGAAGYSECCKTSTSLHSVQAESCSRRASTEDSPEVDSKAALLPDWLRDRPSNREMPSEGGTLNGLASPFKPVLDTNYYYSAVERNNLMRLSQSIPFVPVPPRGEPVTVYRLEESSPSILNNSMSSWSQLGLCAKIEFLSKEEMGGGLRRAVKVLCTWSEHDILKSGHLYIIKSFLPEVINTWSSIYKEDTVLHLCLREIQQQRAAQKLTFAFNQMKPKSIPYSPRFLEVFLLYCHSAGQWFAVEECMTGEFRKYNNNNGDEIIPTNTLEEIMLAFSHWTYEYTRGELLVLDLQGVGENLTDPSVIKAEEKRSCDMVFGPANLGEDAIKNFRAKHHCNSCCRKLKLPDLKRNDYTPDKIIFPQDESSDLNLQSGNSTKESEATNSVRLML

Consider `Cc1ccc(C(C)C)cc1O` [Compound IX, 5-Isopropyl-2-methylphenol], for which the “Reversibility of effect on TRPL channel” value in assay [1] (S2 cells) is recorded as “reversibly blocked”. Further, in assay [1] (S2 cells without TRPL expression, IX 500 μM, XVII 5 mM), the “Effect on current when TRPL channels were not expressed (control)” value is recorded as “no effect”. For the same compound, the “Effect on TRPL-mediated current” value in assay [1] (S2 cells, IX 500 μM, XIII 3 mM, XIV 1 mM, XII 2 mM, XV up to 5 mM, X 5 mM, XVI 5 mM, XVII 5 mM, XI 10 mM) is reported as “Large suppression of the current; also recorded: large decrease in the TRPL-dependent current”. The “TRPL Activation/Inhibition” value in assay [1] (TRPL expressed in S2 cells) is reported as “Inhibition”. Further, the “Effect on light-induced current (LIC) of WT flies, native TRP” value in assay [2] was “inhibited LIC of WT flies”. Further, the “Effect on light-induced current (LIC) amplitude, native TRPL” value in assay [3] is “dramatically reduced LIC amplitude; also recorded: inhibits the native TRPL channels”. Besides, the inhibition at 500 µM in assay [4] is 47 ± 3%. For the same compound, in assay [5] (HEK cells), the “Reversibility of TRPM7 block” value is listed as “reversibly blocked activity”. Besides, the “Effect on TRPM7-mediated current” value in assay [5] (HEK cells expressing TRPM7, IX 500 μM) was “Large and dose-dependent suppression of the current; also recorded: dramatic decrease in the TRPM7 mediated current”. Further, the “Effect in mock-transfected HEK293 cells (TRPM7 not expressed)” value in assay [5] (control) was “no effect was observed”.

By inhibition is commonly meant the share of the control response that was lost under treatment.
